Source: patent US10561638B2, “Methods for treating dependence” (Biotie Therapies, Inc., priority 2007, dated 2020)
“Also recorded” adds a separate entry of the source.

System: MPTP-lesioned squirrel monkey
Test: MPTP-lesioned squirrel monkey Parkinsonian model
Format: in vivo, squirrel monkeys
Protocol: Twenty four squirrel monkeys, fourteen females and ten males were used in a Parkinsonian model. The twenty-four animals were randomly assigned to one of four treatment groups, with 6 animals per group. The groups consisted of the following: Group A (6 animals) received placebo (water) treatment; Group B (5 animals) received drug nepicastat at 1 mg/kg/day (0.5 mg/kg twice daily); Group C (6 animals) received 4 mg/kg/day (2 mg/kg twice daily); and Group D (6 animals) received 10 mg/kg/day (5 mg/kg twice daily). In Group B, one animal died acutely following MPTP-lesioning, and was not replaced.
Prior to lesioning, animals were subjected to quantitative assessment of spontaneous motor activity using an infrared activity monitor (IRAM) cage. All recording sessions were 60 minutes in length and were carried out for 10 sessions over a period of 2 weeks. The behavior of animals was also assessed by 1 to 3 clinical raters using a parkinsonian clinical rating scale (CRS) once per day (12 noon to 1 pm) for 3 to 5 consecutive days. […] Both the activity monitoring (IRAM) and clinical rating assessments established the mean base-line activity of each animal.
Animals were lesioned by the administration of MPTP at a concentration of 2.0 mg/kg (free-base) via subcutaneous injection to achieve a parkinsonian state. A post-MPTP lesioning behavioral assessment was carried out 2 to 4 weeks after the last MPTP-lesioning. Locomotor activity was monitored by IRAM in 60-minute sessions for 3 to 5 days. Clinical behavior (CAS) was assessed by one to three individuals rating over a period of 3 to 5 days.
Animals were tested for response to L-Dopa and the efficacy of drug nepicastat. Testing was carried out 4 to 12 weeks after the last MPTP dose. L-Dopa was administered at a concentration of either 2.5, 5, or 7.5 mg/kg by oral gavage twice daily (at 10 am and 2 pm) for 7 consecutive days. Behavior was determined by IRAM and CRS. Clinical rating was carried out 60 to 90 minutes following the 10 am morning dose on the last 4 days of treatment. Raters (one to three individuals) were blinded to the different treatment groups. IRAM assessment were preformed for 90 minutes immediately following drug administration at 2 pm on the last 2 to 5 days of drug treatment. There was a minimum 2 day washout period between each treatment dose.
Nepicastat or water (as placebo) was administered for 12 days following a minimum 2 day washout after L-Dopa dosing. Drug was administered twice daily at 10 am and 2 pm by oral gavage. Behavior was rated by IRAM and CRS. The CRS was conducted in the morning, 60 to 90 minutes after the 10 am dose of nepicastat on the last 5 days of drug treatment. Raters (one to three individuals) were blinded to the different treatment groups. IRAM assessments were preformed for 90 minutes immediately following drug administration at 2 pm on the last 5 days of drug treatment.
Eight parkinsonian features were rated in each animal and the total score was derived from the sum of these eight features. For each animal, a single clinical rating score was obtained for each drug dose by averaging the clinical rating scores of all raters (one to three) conducted over the consecutive multiple dosing (with the same dose) days. This average CRS was used for statistical analysis. A lower score was considered a less parkinsonian behavioral state.
Statistical analysis consisted of: (1) comparisons between the average CRS of placebo to nepicastat at 1, 4, and 10 mg/kg/day using the Kruskal-Wallis (non-parametric analysis of variance). This comparison was repeated using the average CRS for each experimental drug concentration corrected by the final post-MPTP ratings for each animal. The corrected clinical scores are clinical scores of experimental drug at each concentration as a ratio of post-MPTP clinical scores. […]

Structure (SMILES): Cl.NCc1c[nH]c(=S)n1[C@H]1CCc2c(F)cc(F)cc2C1 [nepicastat, (S)-5-Aminomethyl-1-(5,7-difluoro-1,2,3,4-tetrahydronaphth-2-yl)-2,3-dihydro-2-thioxo-1H-imidazole hydrochloride]
- activity monitoring (IRAM) vs placebo (1 mg/kg/day): slower than placebo treatment
- parkinsonian clinical rating vs placebo (1, 4, 10 mg/kg/day, 12 days, hydrochloride): no detectable differences; also recorded: no significant effect in parkinsonian symptoms compared to placebo
- activity monitoring (IRAM) vs placebo (4 and 10 mg/kg/day): no difference
- parkinsonian clinical rating vs post-MPTP (pre-treatment) state (nepicastat 4 and 10 mg/kg/day, hydrochloride): significant improvement over the post-MPTP (pre-treatment) state; also recorded: significant effect in parkinsonian symptoms compared to post-MPTP lesioning
